According to US8906425B2, “Stimulation of the synthesis of the activity of an isoform of lysyl oxidase-like LOXL for stimulating the formation of elastic fibers” (BASF Beauty Care Solutions France S.A.S., priority 2003, dated 2014):
Marks after values point to notes of the source that are not given here.

Columns and labels:
LOXL mRNA = experiment: Real time RT-PCR effectiveness study, LOXL mRNA; type: cell-based, human; details: 24 hours, adult fibroblasts (donor)
Method: (§1) […] The culture was carried out e.g. in monolayer in 24-well plates, in a defined medium without serum. (Fibroblast Basal Medium). The cells are sown e.g. at 40,000 per cm^2. After the time of placing the actives in contact with the cells (24 hours), the media were removed and the cells were preserved e.g. by dry freezing at −80° C. after a rinsing with phosphate buffer at pH 7.4. At the end of experimentation, the content of mRNA of elastin, of LOXL and of actin is evaluated by an mRNA analysis technique, e.g. by real time RT-PCR. For this, the couples of primers enabling the amplification of specific fragments of these genes are those described above (Example 10).
(§2) After extraction e.g. with the aid of an extraction kit in 96-wells on silica columns and determination on a 96-well spectrophotometer at 260 nm, the RNAs are diluted e.g. to 5 ng/μl. The RT-PCR reactions (Reverse Polymerase Transcription Chain Reactions) were carried out by quantitative real time RT-PCR with the aid of the “Opticon” system (MJ Research). Advantageously, the reaction mixture (50 μl) introduced into the wells was the following, for each sample: • 10 μl of RNA at a concentration of 5 ng/μl, • The specific primers of the various labels sought after, • Reaction mixture (Qiagen 25 μl 2xQuantiTect SYBR Green RT-PCR master mix containing 5 mM MgCl2+0.5 μl QuantiTect RT mix), the label SYBR Green I inserting in the DNA double strands during the elongation step. […] Analysis and Method of Calculation: The incorporation of fluorescence in the amplified DNA was evaluated continuously during the PCR cycles. This system enabled obtaining curves of fluorescence measurement as a function of the number of PCR cycles and thus enabled evaluating a relative amount of amplified DNA. […] According to the experimentation, the threshold of measurement of the C (T) (=Cycle Threshold) was fixed for T between 0.05 and 0.01, and then an arbitrary measurement unit is calculated for each gene according to the formula: Sgene ? x ? =10^7×(½)^C(T)gene ? ^x ? […]

LOX mRNA = experiment: Real time RT-PCR effectiveness study, LOX mRNA; type: cell-based, human; details: active at 5%, 24 hours, adult fibroblasts (donor)
elastin mRNA [1] = experiment: Real time RT-PCR effectiveness study, elastin mRNA; type: cell-based, human; details: 24 hours, adult fibroblasts (donor)
Method: as §1, §2

elastin mRNA [2] = experiment: Positive controls: stimulation of elastin mRNA synthesis by quantitative RT-PCR; type: cell-based; details: fibroblasts of normal human skin
Method: (§3) The active principles were tested at 1% (v/v) on fibroblasts of normal human skin (originating from the foreskin of the infant or originating from the adult). The culture was carried out, e.g. in a monolayer on 24-well culture plates, in a defined medium without serum (Fibroblast Basal Medium). The cells were sown, e.g. at 40,000 per cm^2. At the confluence, the cells are placed in contact with the actives advantageously for 24 hours. In parallel, a non-treated control (medium alone) and three positive controls (TGF-β at 1 ng/ml, IL-1α at 50 pg/ml and Phytokine® (Coletica, Lyons, France) at 2% (v/v)) are advantageously carried out, e.g. on the same culture plate. The TGF-β at 1 ng/ml and the IL-1α at 50 pg/ml were tested beforehand and the stimulation of the synthesis of elastin mRNA induced by these two cytokines at these concentrations was verified by an analysis of the mRNAs, e.g. by quantitative RT-PCR (×10 for TGF-β and ×6 for IL-1 alpha). After the time of placing the actives in contact with the cells, e.g. 24 hours, the media are removed and the cells are preserved e.g. by dry freezing at −80° C. after a rinsing in phosphate buffer pH 7.4. The total RNAs are extracted e.g. with the aid of an extraction kit of 96 wells on silica columns and were determined on a 96-well spectrophotometer at 260 nm (purity indicator: protein determination at 280 nm). […]

elastin (Eln) mRNA = experiment: Screening of active principles by qualitative RT-PCR, elastin mRNA; type: cell-based, human; details: actives at 1% (v/v), 24 hours, adult abdomen fibroblasts (donor), mRNA vs actin and non-treated control
Method: as §3

CCCC(=O)OC [methyl butyrate]
LOXL Control multiplied by: (LOXL mRNA; active at 0.01%): 0.89
LOXL Control multiplied by: (LOXL mRNA; active at 1%): 2.10*
LOXL Control multiplied by: (LOXL mRNA; active at 5%): 0.91
LOX Control multiplied by: (LOX mRNA): 0.91
El Control multiplied by: (elastin mRNA [1]; active at 0.01%): 0.92
El Control multiplied by: (elastin mRNA [1]; active at 0.1%): 0.96
El Control multiplied by: (elastin mRNA [1]; active at 5%): 1.70*

TGF-β [reference compound]
stimulation of the synthesis of elastin mRNA (×) (elastin mRNA [2]; TGF-β at 1 ng/ml): 10

ethyl hexenoate
Eln Control multiplied by: (elastin (Eln) mRNA): 1.5

B1: IL-1 alpha: cytokine used as positive control at 50 pg/ml (protein, UniProt P01583 113-271, looked up)
Interleukin-1 alpha: SAPFSFLSNVKYNFMRIIKYEFILNDALNQSIIRANDQYLTAAALHNLDEAVKFDMGAYKSSKDDAKITVILRISKTQLYVTAQDEDQPVLLKEMPEIPKTITGSETNLLFFWETHGTKNYFTSVAHPNLFIATKQDYWVCLAGGPPSITDFQILENQA
stimulation of the synthesis of elastin mRNA (×) (elastin mRNA [2]; IL-1α at 50 pg/ml): 6
